In patent publication US10124033B2, “Peptides and methods of use” (BAXALTA INCORPORATED, priority 2014, dated 2018) one finds IC50 and EC50 data, which are given here for 7 compounds.

As usually defined, the IC50 is the midpoint of a concentration-inhibition curve. Low values mean higher potency, high ones lower potency. The EC50 is the concentration giving half of the maximal effect. Higher therefore signals a less potent agent.

In one test the target is T1, Protein S (Homo sapiens, UniProt P07225).
T1 sequence (P07225 41-676 limits assumed): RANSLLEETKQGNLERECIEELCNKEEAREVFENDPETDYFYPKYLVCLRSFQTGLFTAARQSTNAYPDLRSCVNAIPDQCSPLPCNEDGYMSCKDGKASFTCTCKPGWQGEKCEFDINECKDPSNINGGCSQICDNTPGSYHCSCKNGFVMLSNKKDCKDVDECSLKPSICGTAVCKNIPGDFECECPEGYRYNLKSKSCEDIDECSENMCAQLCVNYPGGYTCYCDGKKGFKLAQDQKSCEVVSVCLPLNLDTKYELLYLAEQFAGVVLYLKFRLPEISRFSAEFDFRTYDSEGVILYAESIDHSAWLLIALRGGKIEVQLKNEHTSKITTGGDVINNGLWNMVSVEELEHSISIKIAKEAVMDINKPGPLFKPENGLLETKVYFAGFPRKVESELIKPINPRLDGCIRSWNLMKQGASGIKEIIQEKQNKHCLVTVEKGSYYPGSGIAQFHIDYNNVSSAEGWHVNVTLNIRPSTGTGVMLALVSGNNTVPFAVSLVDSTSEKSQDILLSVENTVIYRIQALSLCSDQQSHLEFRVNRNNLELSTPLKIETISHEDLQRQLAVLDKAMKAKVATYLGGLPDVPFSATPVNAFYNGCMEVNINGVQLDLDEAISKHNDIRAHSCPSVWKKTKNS
Nature of the test: competition (IC50) ELISA with biotinylated tracer peptide JBS0684. Format: binding. As to conditions: competition ELISA, tracer JBS0684; re-synthesized peptides. As to the method:
The new peptide candidates were synthesized (purity >60%) and screened for affinity in a competitive binding assay (ELISA IC50) and activity in a thrombin generation assay (CAT). The competition (IC50) ELISA was performed using biotinylated tracer peptide JBS0684 to compete for Protein S-binding with candidate peptides. Peptides that compete with the tracer bind the same region of Protein S as the tracer (and each other). Ninety-six well PolySorp plates (Nunc) were coated with 3 μg/mL Protein S in coating buffer (15 mM Na2CO3, 35 mM NaHCO3, pH 9.6) over night. Plates were washed three times with wash buffer (HNaT: 175 mM NaCl, 25 mM HEPES, 5 mM CaCl2, 0.1% Tween 80, pH 7.35), and blocked with 100 μl 2% yeast extract in HNaT for at least 1 hour. Plates were then washed three times with HNaT. JBS0684 was applied at a concentration corresponding to the EC90 value determined in the binding ELISA. A competitor stock solution of peptide (10 mM) was diluted 1/33.3 in HNaT without HSA, and a serial ⅓ dilution was prepared with HNaT with 3% DMSO. The dilution was further diluted with the biotinylated tracer peptide in a ratio of 1:6 (20 μl competitor dilution and 100 μl tracer peptide). The mixture of competitor and tracer peptide was applied to the Protein S-coated microtiter plate and incubated for 1.5 hours. The plates were washed three times with HNaT. Peptide-Protein S binding was detected by applying HRP-conjugated streptavidin to the microtiter plate, incubating the mixture for one hour, washing the plate three times with HNaT, applying TMB (3,3′5,5′-Tetramethylbenzidin), and detecting the subsequent chromogenic conversion of TMB by HRP. IC50 measurements of peptides are provided herein (see, e.g., Table 3).
In general terms: ELISA stands for enzyme-linked immunosorbent assay.

Test [1] concerns the target T2, Protein S/APC cofactor activity (Homo sapiens, UniProt P07225).
T2 construct: host or cells: plasma
T2 sequence (P07225 41-676 limits assumed): T1 sequence (P07225 41-676 limits assumed)
Description: CAT assay: Protein S/APC-dependent thrombin generation in FVIII-inhibited plasma. It is filed as biochemical. Particulars: Protein S-depleted plasma supplemented with APC and Protein S, FVIII-inhibited. As for the experimental part: Peptides also were tested for improvement of Protein S/APC-dependent thrombin generation in hemophilic plasma using a CAT assay. Protein S enhances the anticoagulation of APC in plasma. The CAT assay quantifies the effect of Protein S on APC-mediated thrombin generation initiated via the extrinsic coagulation pathway (Nicolaes, Blood Coagul. Fibrinolysis, 8:28 (1997)). APC (35 nM) and Protein S (25 nM) was added to Protein 5-depleted plasma, and plasma samples were incubated with high titer heat inactivated anti-human FVIII plasma raised in goat (4490 BU/ml; Baxter BioScience, Vienna, Austria; 50 BU/ml final plasma concentration). Thrombin formation in plasma was followed by calibrated automated thrombography (CAT) in a Fluoroskan Ascent® reader (Thermo Labsystems, Helsinki, Finland) and quantified via the thrombin peak-height. Thrombin generation was determined at high tissue factor (TF) concentration in the absence and in the presence of APC at a concentration that reduces the peak height to ˜20%. The inhibitory effect of peptides described herein on the APC cofactor activity of Protein S (PS) in plasma was measured in FVIII-inhibited pooled normal plasma supplemented with APC. Complete (100%) Protein S/APC inhibition is the height of the thrombin peak without addition of APC. Lack of (0%) PS/APC inhibition correlates to the thrombin peak-height value with a certain amount of APC. Peptides were ranked by their normalized values in comparison to the mean of wild-type controls including SD at two defined peptide concentrations (EC50 and EC90).
Exemplary conditions for the CAT assay are as follows. Protein S-depleted plasma was supplemented with 35 nM APC and […]. Stock APC was diluted with 10 pM TF and 15 μM PL. Lyophilized peptides were dissolved in 100% DMSO to a 5 mM stock concentration and further diluted with HNABSA5-buffer+0.1% Tween80. […] In a 96 well Immulon 2HB (transparent), U-bottom (ThermoElectron) plate was mixed 80 μl plasma (+CTI+Z994-5), 10 μl peptide dilution, and 10 μl APC-TF-PL-MIX or Calibrator. Thrombin generation was initiated by dispensing 20 μL of FluCa reagent containing fluorogenic substrate and HEPES-buffered CaCl2 (100 mM) into each well. Fluorescence intensity was recorded at 37° C. using the Fluoroskan Ascent® reader (filters 390 nm excitation and 460 nm emission). The parameters of the resulting thrombin generation curves were calculated using the Thrombinoscope™ software (Thrombinoscope) and thrombin calibrator to correct for inner filter and substrate consumption effects (Hemker, Pathophysiol Haemost Thromb, 33: 415 (2003)).

Residues, ends and D or L forms follow the SMILES beside them.

Take `CC(=O)N[C@H](C(=O)NCC(=O)N[C@@H](Cc1c[nH]cn1)C(=O)N[C@H](C(=O)N[C@@H](CO)C(=O)N[C@@H](C)C(=O)NCC(=O)N[C@@H](Cc1c[nH]c2ccccc12)C(=O)N[C@@H](Cc1ccc(O)cc1)C(=O)N[C@@H](CC(=O)O)C(=O)N[C@@H](Cc1ccc(O)cc1)C(=O)N[C@@H](CC(N)=O)C(=O)N[C@@H](C)C(=O)N[C@@H](CC(=O)O)C(=O)N[C@@H](Cc1c[nH]cn1)C(=O)N[C@@H](Cc1ccc(O)cc1)C(=O)N[C@@H](CCCNC(=N)N)C(=O)N[C@@H](CCC(=O)O)C(=O)N[C@@H](Cc1ccccc1)C(=O)N[C@H](C(N)=O)[C@@H](C)O)C(C)C)[C@@H](C)O` [JBS2526] (Ac-TGHVSAGWYDYNADHYREFT-NH2): the IC50 at Protein S came out at 3.6 nM. The EC50 in test [1] is 19 nM.
For `CC(=O)N[C@H](C(=O)NCC(=O)N[C@@H](Cc1c[nH]cn1)C(=O)N[C@H](C(=O)N[C@@H](CO)C(=O)N[C@@H](C)C(=O)NCC(=O)N[C@@H](Cc1c[nH]c2ccccc12)C(=O)N[C@@H](Cc1ccc(O)cc1)C(=O)N[C@@H](CC(=O)O)C(=O)N[C@@H](Cc1ccc(O)cc1)C(=O)N[C@@H](CC(N)=O)C(=O)N[C@@H](Cc1ccccc1)C(=O)N[C@@H](CC(=O)O)C(=O)N[C@@H](CC(=O)O)C(=O)N[C@@H](Cc1ccc(O)cc1)C(=O)N[C@@H](CCCNC(=N)N)C(=O)N[C@@H](CCC(=O)O)C(=O)N[C@@H](Cc1ccccc1)C(=O)N[C@H](C(N)=O)[C@@H](C)O)C(C)C)[C@@H](C)O` [JBS2546] (Ac-TGHVSAGWYDYNFDDYREFT-NH2), the IC50 at Protein S turned out to be 6.8 nM. In test [1], the response was half-maximal at 30 nM (EC50).
On to `CC(=O)NCC(=O)NCC(=O)N[C@@H](Cc1c[nH]cn1)C(=O)N[C@H](C(=O)N[C@@H](CO)C(=O)N[C@@H](C)C(=O)NCC(=O)N[C@@H](Cc1c[nH]c2ccccc12)C(=O)N[C@@H](Cc1ccc(O)cc1)C(=O)N[C@@H](CC(=O)O)C(=O)N[C@@H](Cc1ccc(O)cc1)C(=O)N[C@@H](CC(N)=O)C(=O)N[C@@H](Cc1ccccc1)C(=O)N[C@@H](CC(=O)O)C(=O)N[C@@H](Cc1c[nH]cn1)C(=O)N[C@@H](Cc1ccc(O)cc1)C(=O)N[C@@H](CCCNC(=N)N)C(=O)N[C@@H](CCC(=O)O)C(=O)N[C@@H](Cc1ccccc1)C(=O)N[C@H](C(N)=O)[C@@H](C)O)C(C)C` [JBS2552] (Ac-GGHVSAGWYDYNFDHYREFT-NH2), for which, on Protein S, the IC50 turned out to be 5.5 nM. In addition, the EC50 in test [1] was determined as 24 nM.
The corresponding values for `CC(=O)N[C@H](C(=O)NCC(=O)N[C@@H](Cc1c[nH]cn1)C(=O)N[C@H](C(=O)N[C@@H](CO)C(=O)N[C@@H](C)C(=O)NCC(=O)N[C@@H](Cc1c[nH]c2ccccc12)C(=O)N[C@@H](Cc1ccc(O)cc1)C(=O)N[C@@H](CC(=O)O)C(=O)N[C@@H](Cc1ccc(O)cc1)C(=O)N[C@@H](CC(N)=O)C(=O)N[C@@H](Cc1ccccc1)C(=O)N[C@@H](CC(=O)O)C(=O)N[C@@H](CC(C)C)C(=O)N[C@@H](Cc1ccc(O)cc1)C(=O)N[C@@H](CCCNC(=N)N)C(=O)N[C@@H](CCC(=O)O)C(=O)N[C@@H](Cc1ccccc1)C(=O)N[C@H](C(N)=O)[C@@H](C)O)C(C)C)[C@@H](C)O` [JBS2584] (Ac-TGHVSAGWYDYNFDLYREFT-NH2) are 2.7 nM and 9 nM.
The like results for `CC(=O)N[C@H](C(=O)NCC(=O)N[C@@H](Cc1c[nH]cn1)C(=O)N[C@H](C(=O)N[C@@H](CO)C(=O)N[C@@H](C)C(=O)NCC(=O)N[C@@H](Cc1c[nH]c2ccccc12)C(=O)N[C@@H](Cc1ccc(O)cc1)C(=O)N[C@@H](CC(=O)O)C(=O)N[C@@H](Cc1ccc(O)cc1)C(=O)N[C@@H](CC(N)=O)C(=O)N[C@@H](Cc1ccccc1)C(=O)N[C@@H](CC(=O)O)C(=O)N[C@@H](Cc1c[nH]cn1)C(=O)N[C@@H](Cc1ccc(O)cc1)C(=O)N[C@@H](CC(C)C)C(=O)N[C@@H](CCC(=O)O)C(=O)N[C@@H](Cc1ccccc1)C(=O)N[C@H](C(N)=O)[C@@H](C)O)C(C)C)[C@@H](C)O` [JBS2586] (Ac-TGHVSAGWYDYNFDHYLEFT-NH2) were, in that order, 2.6 nM and 19 nM.
Compound `CC(=O)N[C@H](C(=O)NCC(=O)N[C@@H](Cc1c[nH]cn1)C(=O)N[C@H](C(=O)N[C@@H](CO)C(=O)N[C@@H](C)C(=O)NCC(=O)N[C@@H](Cc1c[nH]c2ccccc12)C(=O)N[C@@H](Cc1ccc(O)cc1)C(=O)N[C@@H](CC(=O)O)C(=O)N[C@@H](Cc1ccc(O)cc1)C(=O)N[C@@H](CC(N)=O)C(=O)N[C@@H](CCCCN)C(=O)N[C@@H](CC(=O)O)C(=O)N[C@@H](Cc1c[nH]cn1)C(=O)N[C@@H](Cc1ccc(O)cc1)C(=O)N[C@@H](CCCNC(=N)N)C(=O)N[C@@H](CCC(=O)O)C(=O)N[C@@H](Cc1ccccc1)C(=O)N[C@H](C(N)=O)[C@@H](C)O)C(C)C)[C@@H](C)O` [JBS2602] (Ac-TGHVSAGWYDYNKDHYREFT-NH2) returned an IC50 on Protein S of 3.4 nM. This compound also had a concentration giving a half-maximal response (EC50) in test [1] of 30 nM.
The like results for `CC(=O)N[C@H](C(=O)NCC(=O)N[C@@H](Cc1c[nH]cn1)C(=O)N[C@H](C(=O)N[C@@H](CO)C(=O)N[C@@H](C)C(=O)NCC(=O)N[C@@H](Cc1c[nH]c2ccccc12)C(=O)N[C@@H](Cc1ccc(O)cc1)C(=O)N[C@@H](CC(=O)O)C(=O)N[C@@H](Cc1ccc(O)cc1)C(=O)N[C@@H](CC(N)=O)C(=O)N[C@@H](Cc1ccccc1)C(=O)N[C@@H](CC(=O)O)C(=O)N[C@@H](CCCCN)C(=O)N[C@@H](Cc1ccc(O)cc1)C(=O)N[C@@H](CCCNC(=N)N)C(=O)N[C@@H](CCC(=O)O)C(=O)N[C@@H](Cc1ccccc1)C(=O)N[C@H](C(N)=O)[C@@H](C)O)C(C)C)[C@@H](C)O` [JBS2604] (Ac-TGHVSAGWYDYNFDKYREFT-NH2) were, in that order, 4.1 nM and 19 nM.
